Measured values from the supplement of paper PMC5412046.
Structures can show the parent of a compound that is named as a salt.

Key:
SB.mhdgc-1 [1] = experiment: viability at highest tested concentration (MAXR) relative to DMSO; higher = less cytotoxic; conditions: SB.mhdgc-1 (hereditary c.1380delA CDH1 gastric cancer)
Summary of the method: (§1)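 In 1536-well plates, each well held 500 gastric cancer cells of hereditary or sporadic patient origin in 5 μL medium. Compound in DMSO (23 nL, pintool) was added at 11 concentrations spaced threefold apart, and the top concentration was noted per compound. Luminescence was read on a ViewLux after a 48 h incubation and a 30 min room-temperature treatment with CellTiter-Glo. Figures give viability normalised to DMSO, either at the highest concentration or as trapezoidal area under the curve.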

SB.msgc-1 [2] = experiment: as above; conditions: SB.msgc-1 (sporadic gastric cancer)
Summary of the method: as §1

SB.mhdgc-1 [3] = experiment: area under the dose-response curve of % viability (trapezoidal, 11 doses) (% viability x log10 concentration); higher = less cytotoxic; conditions: SB.mhdgc-1 (hereditary c.1380delA CDH1 gastric cancer)
Summary of the method: as §1

SB.msgc-1 [4] = experiment: as above; conditions: SB.msgc-1 (sporadic gastric cancer)
Summary of the method: as §1

Row | Structure (SMILES) | viability (SB.mhdgc-1 [1]) [%] | viability (SB.msgc-1 [2]) [%] | area under the dose-response curve (SB.mhdgc-1 [3]) | area under the dose-response curve (SB.msgc-1 [4])
1 | NC/1=N/C(=O)N/C=C1F [Flucytosine] (top concentration 46.0829 µM) | 50.3 | 68.6 | 495 | 480
2 | Nc1nc(F)nc2c1ncn2[C@@H]1O[C@H](COP(=O)(O)O)[C@@H](O)[C@@H]1O [Fludarabine phosphate] (top concentration 46.0829 µM) | 35.8 | 47.7 | 490 | 524
3 | CCOC(=O)c1ncn2c1CN(C)C(=O)c1cc(F)ccc1-2 [Flumazenil] (top concentration 46.0829 µM) | 40.2 | 88 | 512 | 583
4 | Fc1ccc(C(c2ccc(F)cc2)N2CCN(C/C=C/c3ccccc3)CC2)cc1 [Flunarizine] (top concentration 46.0829 µM) | 88 | 74.7 | 574 | 529
5 | CC1(C)OC2CC3C4CC(F)C/5=C/C(=O)/C=C\C5(C)C4C(O)CC3(C)[C@@]2(O1)C(=O)CO (some centres not stated) [Flunisolide] (top concentration 46.0829 µM) | 122 | 121 | 609 | 573
6 | CC1(C)O[C@@H]2C[C@H]3[C@@H]4C[C@H](F)C5=CC(=O)C=C[C@]5(C)[C@@]4(F)[C@@H](O)C[C@]3(C)[C@]2(C(=O)CO)O1 [Fluocinolone acetonide] (top concentration 46.0829 µM) | 48.3 | 67.3 | 454 | 558
7 | CC(=O)OCC(=O)[C@@]12OC(C)(C)O[C@@H]1C[C@H]3[C@@H]4C[C@H](F)C/5=C/C(=O)/C=C\[C@]5(C)[C@@]4(F)[C@@H](O)C[C@]23C [Fluocinonide] (top concentration 46.0829 µM) | 120 | 131 | 583 | 549
8 | F\C1=C\NC(=O)NC1=O [Fluorouracil] (top concentration 46.0829 µM) | 43.1 | 45.2 | 380 | 449
9 | OCCN1CCN(CCCN2c3ccccc3Sc3ccc(C(F)(F)F)cc32)CC1 [Fluphenazine hydrochloride] (top concentration 46.0829 µM) | 6.36 | 49.1 | 461 | 497
10 | CCOC(=O)Nc1ccc(NCc2ccc(F)cc2)nc1N [Flupirtine maleate] (top concentration 46.0829 µM) | 131 | 81.6 | 574 | 539
11 | CC(C(=O)O)c1ccc(-c2ccccc2)c(F)c1 (configuration not stated) [Flurbiprofen] (top concentration 46.0829 µM) | 31.8 | 32.6 | 438 | 363
12 | CC(C)C(=O)Nc1ccc([N+](=O)[O-])c(C(F)(F)F)c1 [Flutamide] (top concentration 46.0829 µM) | 4.9 | 4.49 | 378 | 401
13 | CCC(=O)O[C@@]1([C@H](C)C[C@H]2[C@@H]3C[C@H](F)\C4=C\C(=O)\C=C/[C@]4(C)[C@@]3(F)[C@@H](O)C[C@]12C)C(=O)SCF [Fluticasone propionate] (top concentration 46.0829 µM) | 32.2 | 41.4 | 519 | 541
14 | CC(C)n1c(/C=C/[C@H](O)C[C@H](O)CC(=O)[O-])c(-c2ccc(F)cc2)c2ccccc21 [Fluvastatin] (top concentration 46.0829 µM) | 71.4 | 77.9 | 445 | 504
15 | COCCCC/C(=N\OCCN)c1ccc(C(F)(F)F)cc1 [Fluvoxamine maleate] (top concentration 46.0829 µM) | 4.45 | 35.9 | 440 | 358
16 | Cc1cn[nH]c1 [Fomepizole] (top concentration 46.0829 µM) | 77.3 | 39.8 | 366 | 310
17 | COc1cc2c(Oc3ccc(NC(=O)C4(C(=O)Nc5ccc(F)cc5)CC4)cc3F)ccnc2cc1OCCCN1CCOCC1 [Foretinib] (top concentration 46.0829 µM) | 2.84 | 0.558 | 386 | 397
18 | C[C@]12CCC(=O)C(O)=C1CC[C@@H]1[C@@H]2CC[C@]2(C)C(=O)CC[C@@H]12 [Formestane] (top concentration 46.0829 µM) | 96.8 | 100 | 602 | 553
19 | COC1=CC=C(C=C1)C/2=C/OC3=CC(=CC=C3C2=O)O [Formononetin] (top concentration 46.0829 µM) | 122 | 92 | 621 | 567
20 | COc1cc(Nc2ncc(F)c(Nc3ccc4c(n3)N(COP(=O)(O)O)C(=O)C(C)(C)O4)n2)cc(OC)c1OC [Fostamatinib disodium] (top concentration 46.0829 µM) | 6.16 | 31 | 408 | 411
21 | CCOP(=O)(OCC)C(C)NC(=O)N(CCCl)N=O (configuration not stated) [Fotemustine] (top concentration 46.0829 µM) | 95.3 | 73.1 | 480 | 496
22 | C[C@]12CC[C@@H]3c4ccc(O)cc4C[C@@H](CCCCCCCCC[S+]([O-])CCCC(F)(F)C(F)(F)F)[C@H]3[C@@H]1CC[C@@H]2O (some centres not stated) [Fulvestrant] (top concentration 46.0829 µM) | 90.9 | 87.6 | 531 | 515
23 | COc1cc(/C=C/C(=O)O)ccc1O [Fumalic acid] (top concentration 46.0829 µM) | 112 | 80.7 | 583 | 427
